Assay results taken from patent US8633204B2 (Pfizer Inc., priority 2006, dated 2014).
Entries after “also recorded” stand apart in the source; their conditions may differ.

Assays:
PC3 tumor model = assay: Mouse xenograft efficacy study, PC3; assay type: in vivo
Description: (§1) The in vivo efficacy of 2-amino-8-(trans-4-hydroxycyclohexyl)-6-(6-methoxypyridin-3-yl)-4-methylpyrido[2,3-d]pyrimidin-7(8H)-one (Compound 152) disclosed in Example 53 was examined in s.c. xenograft model. Human tumor cell lines PC3 (PTEN deletion)), U87MG (PTEN deletion) and SKOV3 (PI3Kα […]) were chosen for in vivo efficacy studies due to their different genetic background and relatively high levels of phospho AKT S473 signal. Cells were implanted in the hind flank of athymic mice and tumors grew in size to 100-200 mm^3 before daily oral treatment with Compound 152 was initiated. […] For all models tested 1 mg/kg was an efficacious dose.
(§2) Animal Care: Female and male athymic mice (6-8 weeks old) weighing ˜22 g were obtained from Charles River Laboratory. Animal were housed on a 12 h light/dark cycle in the Pfizer vivarium and all procedures are conducted in accordance with the Pfizer Institutional Animal Care and Use Committee (IACUC). Animals are provided free access to rodent chow and water ad libitum and maintained under clean room conditions. Prior to study start animals acclimate for at least 48 h.
(§3) Cell lines: All cell lines were cultured at 37° C. in humidified 5% CO2 incubator. U87 MG glioblastoma tumor cell line was obtained from American Type Culture Collection (ATCC) and cultured with DMEM supplemented with 15% FBS and 2 mM glutamine. PC3 prostate cancer cell line were obtained from National Cancer Institute and cultured in RPMI media supplemented with 10% FBS and 2 mM glutamine. SKOV3 ovarian cancer cells were obtained from ATCC and passaged multiple times through mice, and cultured in McCoy's 5A media supplemented with 10% FBS and 2 mM glutamine. All cell lines were tested by University of Missouri Research Animal Diagnostic Laboratory for known species of murine viruses and mycoplasma contamination.
(§4) Mouse Xenograft Models: U87MG (glioblastoma), PC3 (prostate cancer) and SKOV3 (ovarian cancer) cell lines in culture were harvested by trypsinisation. Briefly, 2.5−4×10^6 tumor cells were suspended in the medium used to culture each cell line without serum and implanted sub-cutaneously (s.c) into the hind flank region of mice on day 0. Daily treatment with Compound 152, formulated in 10% ethanol, 40% PEG and 50% sodium citrate buffer or vehicle alone commenced 10-14 d after implantation when average tumors were 100-200 mm^3 in size. Tumors were measured twice weekly and tumor volume was calculated as a product of (length×width^2)/2. Studies were typically terminated when the tumor in the vehicle treated animals reached a size of >1500 mm3 or when judged to adversely affect the well being of the animal. […] Where applicable, percent tumor regression for each group was calculated as 100×(tumor volumeinitial−tumor volumefinal)/(tumor volumeinitial). A cohort of 12 animals was used for each dose group for efficacy studies. A representative cohort of animals were sacrificed at the times indicated, tumors resected, and a blood sample taken from the cardiac left ventricle and immediately placed in a vial primed with heparin sulfate. Typically one half of the tumor was fixed in 10% neutral buffered formalin, paraffin embedded, and sectioned for immunohistochemistry. The other half was frozen in liquid nitrogen and later processed to generate cell lysates for target modulation studies.

U87MG tumor model = assay: Mouse xenograft efficacy study, U87MG; assay type: in vivo; details: for Growth Inhibition (%): U87 MG glioma xenograft
Description: as §1, §2, §3, §4

[1] = tested on: phosphorylation of AKT on S473 in PC3 tumors; assay: In vivo target modulation study, PC3 tumors; design: species or system mouse
Description: (§5) In vivo target modulation studies to determine the effect of Compound 152 treatment on the phosphorylation of AKT on S473 by ELISA and S6 on S235/S236 by IHC were performed. Resected tumors were frozen on dry ice and pulverized using the FAST PREP instrument (Qbiogene). Briefly, frozen tumors were placed in Fast Prep matrix tubes, cold lysis buffer [20 mM HEPES (pH 7.5), 150 mM NaCl, 1.0 mM sodium EDTA, 1% Triton X-100, 2.5 mM sodium pyrophosphate, 1 mM sodium orthovanadate, 1 μg/ml leupeptin, and 1 mM PMSF] was added and samples were centrifuged for 5 sec, mixed and process repeated two more times. Samples were centrifuged in a cold refrigerated Eppendorf centrifuge at 14,000 RPM for 20 min. Supernatant was collected and total and phosphoAKT (S473) protein levels determined by ELISA. The extent of phosphorylation in tumors resected from treated animals was compared with that in tumors resected from vehicle-treated animals at the same time point. Plasma samples, obtained by centrifuging individual blood samples at 3000×g for 5 min at 4° C. in an Eppendorf 5417R centrifuge, were stored at −80° C. until they could be analyzed for drug concentration. Briefly, plasma samples (50 μl) or Compound 152 standards in mouse plasma were mixed with acetonitrile […]) and injected onto a LC/MS/MS system where separation occurred on a C-18 SB phenyl (5 μM, 2.1×50 mm, Agilent) reverse-phase high-performance liquid chromatography column. The amount of inhibitor and the internal standard (0.5 μM buspirone) in each mouse plasma sample was quantified based on standard curves generated using known amounts of compound. […] Time course and dose response of in vivo target modulation and plasma inhibitor concentrations were determined post last dose at the end of the efficacy study described above and data are summarized in Table 4.

[2] = tested on: phosphorylation of AKT on S473 in U87MG tumors; assay: In vivo target modulation study, U87MG tumors; design: species or system mouse; details: for p-Akt/Akt(%): 1 h post last dose
Description: as §5

[3] = PC3 tumor model, daily oral treatment
[4] = U87MG tumor model, daily oral treatment

COc1ccc(-c2cc3c(C)nc(N)nc3n([C@H]3CC[C@H](O)CC3)c2=O)cn1 [Compound 152, 2-amino-8-(trans-4-hydroxycyclohexyl)-6-(6-methoxypyridin-3-yl)-4-methylpyrido[2,3-d]pyrimidin-7(8H)-one]
Growth Inhibition (%) (PC3 tumor model; PC3 prostate xenograft, 0.25 mg/kg/day oral): 45% | Growth Inhibition (%) (PC3 tumor model; PC3 prostate xenograft, 0.5 mg/kg/day oral): 62% | Growth Inhibition (%) (PC3 tumor model; PC3 prostate xenograft, 1 mg/kg/day oral): 89% | Regression (%) (PC3 tumor model; PC3 prostate xenograft, 2 mg/kg/day oral): 19% | anti-tumor efficacy (PC3 tumor model; [3]): dose-dependent anti-tumor efficacy; also recorded: regression | efficacious dose (PC3 tumor model; [3]): 1 mg/kg | Growth Inhibition (%) (U87MG tumor model; 0.1 mg/kg/day oral): 18% | Growth Inhibition (%) (U87MG tumor model; 0.3 mg/kg/day oral): 56% | Growth Inhibition (%) (U87MG tumor model; 1.0 mg/kg/day oral): 76% | anti-tumor efficacy (U87MG tumor model; [4]): dose-dependent anti-tumor efficacy; also recorded: growth inhibition | efficacious dose (U87MG tumor model; [4]): 1 mg/kg | p-Akt/Akt(%) ([1]; PC3, 0.25 mg/kg, 3 h post last dose): 42 ± 14% | p-Akt/Akt(%) ([1]; PC3, 0.25 mg/kg, 7 h post last dose): 82 ± 18% | p-Akt/Akt(%) ([1]; PC3, 0.25 mg/kg, 24 h post last dose): 137 ± 23% | p-Akt/Akt(%) ([1]; PC3, 0.5 mg/kg, 3 h post last dose): 32 ± 4% | p-Akt/Akt(%) ([1]; PC3, 0.5 mg/kg, 7 h post last dose): 38 ± 5% | p-Akt/Akt(%) ([1]; PC3, 0.5 mg/kg, 24 h post last dose): 107 ± 6% | p-Akt/Akt(%) ([1]; PC3, 1 mg/kg, 3 h post last dose): 23 ± 10% | p-Akt/Akt(%) ([1]; PC3, 1 mg/kg, 7 h post last dose): 27 ± 9% | p-Akt/Akt(%) ([1]; PC3, 1 mg/kg, 24 h post last dose): 113 ± 15% | p-Akt/Akt(%) ([1]; PC3, 2 mg/kg, 3 h post last dose): 21 ± 5% | p-Akt/Akt(%) ([1]; PC3, 2 mg/kg, 7 h post last dose): 17 ± 7% | p-Akt/Akt(%) ([1]; PC3, 2 mg/kg, 24 h post last dose): 78 ± 9% | inhibition of pAKT at S473 ([1]; PC3 tumors in vivo): dose dependent inhibition | EC50 ([2]; Mus musculus, U-87 MG, read-out: EC50 plasma concentration for pAKT S473 target modulation): 24 nM | p-Akt/Akt(%) ([2]; U87, 0.1 mg/kg): 44% | p-Akt/Akt(%) ([2]; U87, 0.3 mg/kg): 27% | p-Akt/Akt(%) ([2]; U87, 1 mg/kg): 11% | inhibition of pAKT at S473 ([2]; U87MG tumors in vivo): dose dependent inhibition
